PubChem BioAssay (NCI)
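GI50 = concentration required for 50% inhibition of growth. TGI denotes the concentration required for complete inhibition of growth.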

Legend:
Experiment in all cases: growth of human tumour cells (NCI), 384-well format
[1] = system: SN12C renal
[2] = system: HCC-2998 colon
[3] = system: 786-0 renal
[4] = system: MDA-MB-468 breast
[5] = system: MCF7 breast
[6] = system: SF-295 CNS
[7] = system: BT-549 breast
[8] = system: U251 glioblastoma
[9] = system: NCI-H23 lung
[10] = system: HT29 colon
[11] = system: T-47D breast
[12] = system: RPMI-8226 leukemia
[13] = system: HCT-116 colon
[14] = system: DU-145 prostate
[15] = system: SR leukemia
[16] = system: TK-10 renal
[17] = system: MDA-MB-435 melanoma
[18] = system: LOX IMVI melanoma
[19] = system: A549 NSCLC
[20] = system: UACC-257 melanoma
[21] = system: SK-MEL-28 melanoma
[22] = system: HS 578T breast
[23] = system: IGROV1 ovarian
[24] = system: SK-MEL-5 melanoma
[25] = system: SNB-75 CNS
[26] = system: HOP-62 NSCLC
[27] = system: HCT-15 colon
[28] = system: SF-539 CNS
[29] = system: K-562 leukemia
[30] = system: CAKI-1 renal
[31] = system: SF-268 CNS
[32] = system: SK-OV-3 ovarian
[33] = system: EKVX NSCLC
[34] = system: M14 melanoma
[35] = system: NCI-H322M lung
[36] = system: SW-620 colon
[37] = system: PC-3 prostate
[38] = system: HL-60(TB) leukemia
[39] = system: CCRF-CEM leukemia
[40] = system: MDA-MB-231 breast
[41] = system: HOP-92 NSCLC
[42] = system: UO-31 renal
[43] = system: OVCAR-3 ovarian
[44] = system: NCI-H460 NSCLC
[45] = system: UACC-62 melanoma
[46] = system: MALME-3M melanoma
[47] = system: SK-MEL-2 melanoma
[48] = system: KM12 colon
[49] = system: COLO 205 colon
[50] = system: MOLT-4 leukemia
[51] = system: NCI-H226 lung
[52] = system: RXF 393 renal
[53] = system: A498 renal
[54] = system: NCI-H522 lung
[55] = system: NCI/ADR-RES ovarian
[56] = system: OVCAR-8 ovarian
[57] = system: OVCAR-5 ovarian
[58] = system: SNB-19 CNS
[59] = system: OVCAR-4 ovarian
[60] = system: ACHN renal

## Cn1ncnc1[C@H]1c2n[nH]c(=O)c3cc(F)cc(c23)N[C@@H]1c1ccc(F)cc1
[1]
  GI50: 3.72 µM
  TGI: > 100 µM
[2]
  GI50: 40.3 µM
  TGI: > 100 µM
[3]
  GI50: > 73.7 µM
  TGI: > 100 µM
[4]
  GI50: 0.123 µM
  TGI: 1.13 µM
[5]
  GI50: 1.72 µM
  TGI: > 100 µM
[6]
  GI50: 0.204 µM
  TGI: 2.56 µM
[7]
  GI50: 2.5 µM
  TGI: > 61.4 µM
[8]
  GI50: 2.88 µM
  TGI: > 100 µM
[9]
  GI50: 0.56 µM
  TGI: > 47.7 µM
[10]
  GI50: > 100 µM
  TGI: > 100 µM
[11]
  GI50: 10.9 µM
  TGI: > 100 µM
[12]
  GI50: 6.39 µM
  TGI: > 100 µM
[13]
  GI50: 0.706 µM
  TGI: > 100 µM
[14]
  GI50: 1.38 µM
  TGI: 30 µM
[15]
  TGI: 0.0102 µM
[16]
  GI50: > 100 µM
  TGI: > 100 µM
[17]
  GI50: > 100 µM
  TGI: > 100 µM
[18]
  GI50: 2.07 µM
  TGI: > 100 µM
[19]
  GI50: 7.83 µM
  TGI: > 100 µM
[20]
  GI50: > 100 µM
  TGI: > 100 µM
[21]
  GI50: > 90.3 µM
  TGI: > 100 µM
[22]
  GI50: 15.2 µM
  TGI: > 100 µM
[23]
  GI50: > 33 µM
  TGI: > 100 µM
[24]
  GI50: 41.1 µM
  TGI: > 100 µM
[25]
  GI50: 6.38 µM
  TGI: 29.5 µM
[26]
  GI50: 0.228 µM
  TGI: 8.8 µM
[27]
  GI50: > 43.7 µM
  TGI: > 100 µM
[28]
  GI50: 1.02 µM
  TGI: > 100 µM
[29]
  GI50: 30.7 µM
  TGI: > 100 µM
[30]
  GI50: 21 µM
  TGI: > 100 µM
[31]
  GI50: 1.39 µM
[32]
  GI50: 3.82 µM
  TGI: > 100 µM
[33]
  GI50: > 78.7 µM
  TGI: > 100 µM
[34]
  GI50: 2.25 µM
  TGI: > 100 µM
[35]
  GI50: > 100 µM
  TGI: > 100 µM
[36]
  GI50: 3.66 µM
  TGI: > 100 µM
[37]
  GI50: > 100 µM
  TGI: > 100 µM
[38]
  GI50: 0.625 µM
  TGI: 1.99 µM
[39]
  GI50: 0.256 µM
  TGI: 1.27 µM
[40]
  GI50: > 100 µM
  TGI: > 100 µM
[41]
  GI50: 46.9 µM
  TGI: > 100 µM
[42]
  GI50: 26.9 µM
  TGI: > 100 µM
[43]
  GI50: > 79.7 µM
  TGI: > 100 µM
[44]
  GI50: 0.0169 µM
  TGI: > 66.3 µM
[45]
  GI50: 14.7 µM
  TGI: > 100 µM
[46]
  GI50: > 64.6 µM
  TGI: > 100 µM
[47]
  GI50: > 100 µM
  TGI: > 100 µM
[48]
  GI50: > 100 µM
  TGI: > 100 µM
[49]
  GI50: 1.87 µM
  TGI: > 100 µM
[50]
  GI50: 0.0183 µM
  TGI: 0.145 µM
[51]
  GI50: 22 µM
  TGI: > 100 µM
[52]
  GI50: 3.29 µM
  TGI: > 26.9 µM
[53]
  GI50: 31.1 µM
  TGI: > 100 µM
[54]
  GI50: 44.6 µM
  TGI: > 100 µM
[55]
  GI50: 17.4 µM
  TGI: > 100 µM
[56]
  GI50: 0.804 µM
  TGI: > 100 µM
[57]
  GI50: > 100 µM
  TGI: > 100 µM
[58]
  GI50: 10.9 µM
  TGI: > 100 µM
[59]
  GI50: > 84.8 µM
  TGI: > 100 µM
[60]
  GI50: 17 µM
  TGI: > 100 µM
